This assay concerns the target T1, human mAChR M4 (Homo sapiens, UniProt P08173).
T1 construct: expressed in transfected cells
T1 sequence (P08173 1-479): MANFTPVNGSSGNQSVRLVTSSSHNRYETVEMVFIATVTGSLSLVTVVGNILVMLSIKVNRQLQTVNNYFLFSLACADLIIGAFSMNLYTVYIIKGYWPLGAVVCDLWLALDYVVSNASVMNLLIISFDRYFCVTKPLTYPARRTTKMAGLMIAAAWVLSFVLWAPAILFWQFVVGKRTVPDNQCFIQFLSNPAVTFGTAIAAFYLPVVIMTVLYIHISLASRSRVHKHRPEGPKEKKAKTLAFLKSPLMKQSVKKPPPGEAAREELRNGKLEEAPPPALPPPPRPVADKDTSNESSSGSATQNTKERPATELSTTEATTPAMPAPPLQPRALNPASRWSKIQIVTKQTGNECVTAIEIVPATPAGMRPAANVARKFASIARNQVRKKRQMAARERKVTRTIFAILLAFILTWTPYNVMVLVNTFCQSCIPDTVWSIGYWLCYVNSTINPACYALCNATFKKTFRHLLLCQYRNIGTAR
The assay is described as follows: mAChR M4 cell-based functional assay (calcium mobilization, CHO-K1 hM4-Gqi5 cells). The note with it: for Emax at 30 µM: CHO-K1, % ACh maximum at 30 μM, human M4; for pEC50: positive allosteric modulator activity, increase in the EC20 acetylcholine response, CHO-K1 hM4-Gqi5 cells, read-out: Human M4 EC50; for Emax: CHO-K1. In a few lines:
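Fluorescent calcium read-out (Fluo-4 AM, FDSS, 1 Hz) in hM4-Gqi5 CHO-K1 cells, 11-point 1:3 compound series. Agonism scored on compound addition, PAM activity as increase of the 144 s EC20 acetylcholine response, antagonism as decrease of the 230 s EC80 response; four-parameter logistic fits give EC50 and Emax.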
(In general: Calcium assays in cells follow changes in intracellular calcium, usually with a dye or a luminescent sensor.)

pEC50: −log10 of the molar value.

As a reminder, the Emax is the maximal effect, on the per cent scale that the assay sets. Broadly, the pEC50 is the negative decadic logarithm of the EC50, by convention in mol/L. For the compound `Cc1cc(C#N)cnc1N1CCc2ncc(Nc3cccc(Cl)c3F)cc2C1` [compound 114, 6-[3-(3-chloro-2-fluoro-anilino)-7,8-dihydro-5H-1,6-naphthyridin-6-yl]-5-methyl-pyridine-3-carbonitrile], the maximal response (Emax) at 30 µM came out at 100% and the negative logarithm of the EC50 (pEC50) is 6.01.
As to `[2H]C([2H])([2H])c1cnc2c(c1)CN(c1nnc(C(=O)N3CC(F)(F)C3)cc1C)CC2` [Example 576, (3,3-difluoroazetidin-1-yl)(5-methyl-6-(3-(methyl-d3)-7,8-dihydro-1,6-naphthyridin-6(5H)-yl)pyridazin-3-yl)methanone], the maximal response (Emax) at 30 µM was 71% and the negative logarithm of the EC50 (pEC50) was 7.39.
With `Cc1cc(C(=O)N2CC(F)(F)C2)nnc1N1CCc2ncc(-n3cccn3)cc2C1` [Example 533, (6-(3-(1H-pyrazol-1-yl)-7,8-dihydro-1,6-naphthyridin-6(5H)-yl)-5-methylpyridazin-3-yl)(3,3-difluoroazetidin-1-yl)methanone], the Emax at 30 µM was found to be 88% and the pEC50 was 6.97.
Consider `Cc1cc(C(=O)NCc2cncs2)cnc1N1CCc2ncc(Nc3ccnn3C)cc2C1` [Example 449, 5-methyl-6-(3-((1-methyl-1H-pyrazol-5-yl)amino)-7,8-dihydro-1,6-naphthyridin-6(5H)-yl)-N-(thiazol-5-ylmethyl)nicotinamide], for which the maximal effect (Emax) at 30 µM turned out to be 105% and the negative-log EC50 (pEC50) is 7.08.
For `Cc1c(C#N)nnc(N2CCc3ncc(Nc4ncccc4F)cc3C2)c1C` [compound 80, 6-[3-[(3-fluoro-2-pyridyl)amino]-7,8-dihydro-5H-1,6-naphthyridin-6-yl]-4,5-dimethyl-pyridazine-3-carbonitrile] the same measures were 72% and 6.52.
As for `Cc1nc(NCC(C)(C)O)nc(N2CCc3ncc(Nc4ccnn4C)cc3C2)c1C` [compound 280, 1-((4,5-dimethyl-6-(3-((1-methyl-1H-pyrazol-5-yl)amino)-7,8-dihydro-1,6-naphthyridin-6(5/I)-yl)pyrimidin-2-yl)amino)-2-methylpropan-2-ol], the maximum response (Emax) at 30 µM was 105% and the negative-log EC50 (pEC50) was 6.58.
For `Cc1nc(Cl)c(C)c(N2CCc3ncc(-c4cnn(CC5CC5)c4)cc3C2)n1` [compound 194, 6-(6-chloro-2,5-dimethyl-pyrimidin-4-yl)-3-[1-(cyclopropylmethyl)pyrazol-4-yl]-7,8-dihydro-5H-1,6-naphthyridine] the same measures were 93% and 6.68.
For `Cc1cc(C(=O)N2CC3(COC3)C2)nnc1N1CCc2ncc(N3CCCn4nccc43)cc2C1` [Example 542, (6-(3-(6,7-dihydropyrazolo[1,5-a]pyrimidin-4(5H)-yl)-7,8-dihydro-1,6-naphthyridin-6(5H)-yl)-5-methylpyridazin-3-yl)(2-oxa-6-azaspiro[3.3]heptan-6-yl)methanone] the same measures were 113% and 7.19.
For `Cc1cc(C(=O)NCc2nccs2)cnc1N1CCc2ncc(-c3ccn(C)n3)cc2C1` [compound 171, 5-methyl-6-[3-(1-methylpyrazol-3-yl)-7,8-dihydro-5H-1,6-naphthyridin-6-yl]-N-(thiazol-2-ylmethyl)pyridine-3-carboxamide], the Emax at 30 µM came out at 87% and the pEC50 was 6.58.
Regarding `[2H]C1([2H])Cc2ncc(Nc3ccncc3C)cc2C([2H])([2H])N1c1ncc(C#N)cc1C` [Example 610, 5-methyl-6-(3-((3-methylpyridin-4-yl)amino)-7,8-dihydro-1,6-naphthyridin-6(5H)-yl-5,5,7,7-d4)nicotinonitrile], the Emax at 30 µM was determined as 70% and the pEC50 was 7.23.
Regarding `Cc1nc(Cl)c(C)c(N2CCc3ncc(Nc4ccccc4F)cc3C2)n1` [compound 85, 6-(6-chloro-2,5-dimethyl-pyrimidin-4-yl)-N-(2-fluorophenyl)-7,8-dihydro-5H-1,6-naphthyridin-3-amine], the maximum response (Emax) at 30 µM amounted to 86% and the negative-log EC50 (pEC50) is 6.44.
For the compound `Cc1cc(C(=O)N2CC3(COC3)C2)nnc1N1CCc2ncc(-n3cccn3)cc2C1` [Example 571, (6-(3-(1H-pyrazol-1-yl)-7,8-dihydro-1,6-naphthyridin-6(5H)-yl)-5-methylpyridazin-3-yl)(2-oxa-6-azaspiro[3.3]heptan-6-yl)methanone], the maximal effect (Emax) at 30 µM is 85% and the pEC50 was 6.67.
In the case of `Cc1cc(C(=O)N2CC(C)(O)C2)nnc1N1CCc2ncc(N3CCCn4nccc43)cc2C1` [Example 547, (6-(3-(6,7-dihydropyrazolo[1,5-a]pyrimidin-4(5H)-yl)-7,8-dihydro-1,6-naphthyridin-6(5H)-yl)-5-methylpyridazin-3-yl)(3-hydroxy-3-methylazetidin-1-yl)methanone], the Emax at 30 µM was found to be 122% and the pEC50 was 7.40.
For `Cc1cc(C#N)cnc1N1CCc2ncc(-c3cnn(C4CCC4)c3)cc2C1` [compound 101, 6-[3-(1-cyclobutylpyrazol-4-yl)-7,8-dihydro-5H-1,6-naphthyridin-6-yl]-5-methyl-pyridine-3-carbonitrile] the same measures were 91% and 6.47.
As for `Cc1cc(C(=O)NCC(C)(C)O)cnc1N1CCc2ncc(-c3cn(C)nc3C)cc2C1` [Example 461, 6-(3-(1,3-dimethyl-1H-pyrazol-4-yl)-7,8-dihydro-1,6-naphthyridin-6(5H)-yl)-N-(2-hydroxy-2-methylpropyl)-5-methylnicotinamide], the maximal effect (Emax) at 30 µM was 76% and the pEC50 was 5.39.
For `Cc1nc(C)c(C)c(N2CCc3ncc(Nc4ccnn4C)cc3C2)n1` [compound 241, N-(1-methyl-1H-pyrazol-5-yl)-6-(2,5,6-trimethylpyrimidin-4-yl)-5,6,7,8-tetrahydro-1,6-naphthyridin-3-amine] the same measures were 81% and 6.95.
For `Cc1nc(C)c(-c2cnc3c(c2)CN(c2ncc(C#N)cc2C)CC3)s1` [compound 184, 6-[3-(2,4-dimethylthiazol-5-yl)-7,8-dihydro-5H-1,6-naphthyridin-6-yl]-5-methyl-pyridine-3-carbonitrile], the maximum response (Emax) at 30 µM was 111% and the negative-log EC50 (pEC50) was 6.97.
As to `Cc1cc(C#N)cnc1N1CCc2nc(C)c(N3CCOC(C)(C)C3)cc2C1` [Example 377, 6-(3-(2,2-dimethylmorpholino)-2-methyl-7,8-dihydro-1,6-naphthyridin-6(5H)-yl)-5-methylnicotinonitrile], the maximal effect (Emax) came out at 76% and the negative logarithm of the EC50 (pEC50) is 6.12.
As to `Cc1cc(CNC(=O)c2cnc(N3CCc4ncccc4C3)c(C)c2)ccn1` [compound 129, 6-(7,8-dihydro-5H-1,6-naphthyridin-6-yl)-5-methyl-N-[(2-methyl-4-pyridyl)methyl]pyridine-3-carboxamide], the maximal effect (Emax) at 30 µM came out at 61% and the pEC50 was 5.48.
For `COc1cccc2cc(CNC(=O)c3cnc(N4CCc5ncccc5C4)c(C)c3)oc12` [compound 162, 6-(7,8-dihydro-5H-1,6-naphthyridin-6-yl)-N-[(7-methoxybenzofuran-2-yl)methyl]-5-methyl-pyridine-3-carboxamide] the same measures were 65% and 5.47.
For `Cc1cc(C(=O)N2CC(CO)C2)nnc1N1CCc2ncc(N3CCCn4nccc43)cc2C1` [Example 554, (6-(3-(6,7-dihydropyrazolo[1,5-a]pyrimidin-4(5H)-yl)-7,8-dihydro-1,6-naphthyridin-6(5H)-yl)-5-methylpyridazin-3-yl)(3-(hydroxymethyl)azetidin-1-yl)methanone] the same measures were 78% and 7.80.
For `[2H]C([2H])([2H])c1cnc2c(c1)CN(c1nnc(C(=O)NCc3ccncc3)cc1C)CC2` [Example 579, 5-methyl-6-(3-(methyl-d3)-7,8-dihydro-1,6-naphthyridin-6(5H)-yl)-N-(pyridin-4-ylmethyl)pyridazine-3-carboxamide] the same measures were 111% and 7.30.
Take `Cc1nc(C)c(C)c(N2CCc3ncc(-c4cn(C)nc4C)cc3C2)n1` [compound 201, 3-(1,3-dimethylpyrazol-4-yl)-6-(2,5,6-trimethylpyrimidin-4-yl)-7,8-dihydro-5H-1,6-naphthyridine]: the maximal response (Emax) at 30 µM was 77% and the pEC50 was 6.75.
As for `Cc1nc(Cl)c(C)c(N2CCc3ncc(C(F)F)cc3C2)n1` [compound 215, 6-(6-chloro-2,5-dimethylpyrimidin-4-yl)-3-(difluoromethyl)-5,6,7,8-tetrahydro-1,6-naphthyridine], the maximum response (Emax) stood at 93% and the pEC50 is 6.86.
As for `Cc1cc(C(=O)N2CCN(C)CC2)nnc1N1CCc2ncc(N3CCCn4nccc43)cc2C1` [Example 514, (6-(3-(6,7-dihydropyrazolo[1,5-a]pyrimidin-4(5H)-yl)-7,8-dihydro-1,6-naphthyridin-6(5H)-yl)-5-methylpyridazin-3-yl)(4-methylpiperazin-1-yl)methanone], the Emax at 30 µM is 103% and the pEC50 was 6.20.

The values are drawn from patent US20250230155A1 (Vanderbilt University, priority 2021, published 2025).
